Results: publication PMC3961306, “Comparison of the Cancer Gene Targeting and Biochemical Selectivities of All Targeted Kinase Inhibitors Approved for Clinical Use” (PLoS ONE, 2014)

Assays:
Experiment in all cases: Kinase profiling in a biochemical assay panel (mobility shift assays and ELISA), %-inhibition at 1 μM; selectivity entropy
[1] = biological target: panel of more than 300 wild-type and mutant kinases (313 kinase panel) (Homo sapiens, UniProt P35916)
[2] = biological target: T1, panel of more than 300 wild-type and mutant kinases (313 kinase panel) (Homo sapiens, UniProt Q9BXA7)
T1 sequence (Q9BXA7 1-367): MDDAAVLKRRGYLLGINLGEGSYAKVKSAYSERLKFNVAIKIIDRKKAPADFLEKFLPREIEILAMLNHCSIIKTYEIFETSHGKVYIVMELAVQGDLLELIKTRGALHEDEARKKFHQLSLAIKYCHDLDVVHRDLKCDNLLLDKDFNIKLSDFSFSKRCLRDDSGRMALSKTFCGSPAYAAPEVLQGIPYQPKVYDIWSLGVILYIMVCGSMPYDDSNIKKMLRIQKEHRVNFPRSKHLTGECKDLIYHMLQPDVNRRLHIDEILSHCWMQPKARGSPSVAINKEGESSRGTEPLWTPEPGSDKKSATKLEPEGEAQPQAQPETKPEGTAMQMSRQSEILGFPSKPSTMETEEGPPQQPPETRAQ

[3] = biological target: panel of more than 300 wild-type and mutant kinases (313 kinase panel) (Homo sapiens, UniProt Q9P286)
[4] = biological target: panel of more than 300 wild-type and mutant kinases (313 kinase panel) (Homo sapiens, UniProt Q9UKE5)
[5] = biological target: panel of more than 300 wild-type and mutant kinases (313 kinase panel) (Homo sapiens, UniProt Q5VT25)
[6] = biological target: panel of more than 300 wild-type and mutant kinases (313 kinase panel) (Homo sapiens, UniProt P24941)
[7] = biological target: panel of more than 300 wild-type and mutant kinases (313 kinase panel) (Homo sapiens, UniProt P07947)
[8] = biological target: panel of more than 300 wild-type and mutant kinases (313 kinase panel) (Homo sapiens, UniProt Q9Y2H1)
[9] = biological target: panel of more than 300 wild-type and mutant kinases (313 kinase panel) (Homo sapiens, UniProt P49674)
[10] = biological target: panel of more than 300 wild-type and mutant kinases (313 kinase panel) (Homo sapiens, UniProt Q04912)
[11] = biological target: T2, panel of more than 300 wild-type and mutant kinases (313 kinase panel) (Homo sapiens, UniProt Q12851)
T2 sequence (Q12851 1-820): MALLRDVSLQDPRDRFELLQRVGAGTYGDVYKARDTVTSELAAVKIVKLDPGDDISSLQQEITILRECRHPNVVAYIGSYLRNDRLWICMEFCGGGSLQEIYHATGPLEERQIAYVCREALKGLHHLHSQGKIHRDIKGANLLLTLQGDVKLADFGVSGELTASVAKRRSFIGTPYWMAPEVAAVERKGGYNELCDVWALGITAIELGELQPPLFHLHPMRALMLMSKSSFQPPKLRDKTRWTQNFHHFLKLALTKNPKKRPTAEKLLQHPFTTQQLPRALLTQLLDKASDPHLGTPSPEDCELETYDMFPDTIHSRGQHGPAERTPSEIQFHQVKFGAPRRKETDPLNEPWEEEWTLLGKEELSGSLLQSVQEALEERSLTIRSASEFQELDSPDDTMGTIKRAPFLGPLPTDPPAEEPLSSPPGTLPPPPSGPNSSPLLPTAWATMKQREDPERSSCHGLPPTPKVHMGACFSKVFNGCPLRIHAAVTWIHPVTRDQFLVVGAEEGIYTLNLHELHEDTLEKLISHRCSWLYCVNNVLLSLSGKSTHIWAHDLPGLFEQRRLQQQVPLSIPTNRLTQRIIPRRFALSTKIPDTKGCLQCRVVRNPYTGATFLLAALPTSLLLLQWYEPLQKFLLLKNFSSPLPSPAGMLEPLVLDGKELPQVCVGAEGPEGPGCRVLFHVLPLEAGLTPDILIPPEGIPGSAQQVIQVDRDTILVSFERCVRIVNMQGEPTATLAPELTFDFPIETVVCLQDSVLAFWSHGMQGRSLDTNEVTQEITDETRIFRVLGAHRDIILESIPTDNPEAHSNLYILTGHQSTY

[12] = kinase CDK2/CycE1, 1 μM compound
[13] = kinase MAP4K2, compound at 1 μM
[14] = kinase CDK2/CycA2, 1 μM compound

panel of more than 300 wild-type and mutant kinases (313 kinase panel) (Homo sapiens, UniProt P07947), sequence (P07947 whole entry, change not shown): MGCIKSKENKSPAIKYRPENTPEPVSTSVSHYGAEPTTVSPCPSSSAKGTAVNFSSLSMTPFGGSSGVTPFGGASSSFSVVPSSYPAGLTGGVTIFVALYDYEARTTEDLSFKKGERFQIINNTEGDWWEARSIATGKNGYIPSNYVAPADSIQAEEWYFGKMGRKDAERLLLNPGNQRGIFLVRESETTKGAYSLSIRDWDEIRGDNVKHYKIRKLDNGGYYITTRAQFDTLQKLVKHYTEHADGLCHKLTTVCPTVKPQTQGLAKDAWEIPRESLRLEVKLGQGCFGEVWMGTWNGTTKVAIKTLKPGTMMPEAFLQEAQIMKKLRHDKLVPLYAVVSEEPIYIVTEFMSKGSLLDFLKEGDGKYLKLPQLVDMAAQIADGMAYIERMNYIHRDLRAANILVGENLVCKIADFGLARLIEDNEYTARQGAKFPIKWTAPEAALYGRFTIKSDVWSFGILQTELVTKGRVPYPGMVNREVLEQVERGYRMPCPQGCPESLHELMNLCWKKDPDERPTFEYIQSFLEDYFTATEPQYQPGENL
panel of more than 300 wild-type and mutant kinases (313 kinase panel) (Homo sapiens, UniProt Q9UKE5), sequence (Q9UKE5 whole entry, change not shown): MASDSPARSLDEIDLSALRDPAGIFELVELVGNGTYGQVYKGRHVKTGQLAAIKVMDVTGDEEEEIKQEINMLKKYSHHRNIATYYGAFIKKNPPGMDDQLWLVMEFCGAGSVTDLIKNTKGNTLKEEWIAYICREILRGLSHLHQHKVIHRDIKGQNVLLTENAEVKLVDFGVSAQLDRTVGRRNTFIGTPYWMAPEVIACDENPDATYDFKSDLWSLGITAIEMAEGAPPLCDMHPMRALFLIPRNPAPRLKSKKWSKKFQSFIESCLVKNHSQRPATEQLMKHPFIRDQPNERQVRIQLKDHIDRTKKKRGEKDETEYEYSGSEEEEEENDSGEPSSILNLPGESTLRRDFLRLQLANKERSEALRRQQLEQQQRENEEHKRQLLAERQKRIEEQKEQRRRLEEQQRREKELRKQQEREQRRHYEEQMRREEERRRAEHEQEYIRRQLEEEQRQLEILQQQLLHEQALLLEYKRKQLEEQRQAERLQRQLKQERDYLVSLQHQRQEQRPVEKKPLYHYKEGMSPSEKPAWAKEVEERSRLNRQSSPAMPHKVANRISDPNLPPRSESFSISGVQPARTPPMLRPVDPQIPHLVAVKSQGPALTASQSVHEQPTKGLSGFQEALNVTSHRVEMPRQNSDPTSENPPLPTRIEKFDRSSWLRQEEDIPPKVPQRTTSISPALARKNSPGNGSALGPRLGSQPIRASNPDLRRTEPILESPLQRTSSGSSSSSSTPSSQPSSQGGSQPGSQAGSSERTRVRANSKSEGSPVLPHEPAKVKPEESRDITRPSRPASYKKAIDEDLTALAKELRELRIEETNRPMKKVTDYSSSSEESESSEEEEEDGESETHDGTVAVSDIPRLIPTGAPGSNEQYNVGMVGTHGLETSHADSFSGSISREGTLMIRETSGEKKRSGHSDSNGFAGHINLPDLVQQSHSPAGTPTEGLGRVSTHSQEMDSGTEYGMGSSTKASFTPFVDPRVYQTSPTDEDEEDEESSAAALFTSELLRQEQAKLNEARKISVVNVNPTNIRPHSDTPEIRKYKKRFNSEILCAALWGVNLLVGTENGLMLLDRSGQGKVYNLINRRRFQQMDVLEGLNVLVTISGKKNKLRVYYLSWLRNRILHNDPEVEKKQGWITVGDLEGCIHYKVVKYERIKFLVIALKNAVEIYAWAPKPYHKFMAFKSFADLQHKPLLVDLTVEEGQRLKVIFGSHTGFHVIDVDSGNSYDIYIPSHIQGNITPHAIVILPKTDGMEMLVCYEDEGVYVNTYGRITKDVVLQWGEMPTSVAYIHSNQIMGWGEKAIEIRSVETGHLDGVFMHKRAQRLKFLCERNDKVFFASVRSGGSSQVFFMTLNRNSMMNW
panel of more than 300 wild-type and mutant kinases (313 kinase panel) (Homo sapiens, UniProt Q9Y2H1), sequence (Q9Y2H1 whole entry, change not shown): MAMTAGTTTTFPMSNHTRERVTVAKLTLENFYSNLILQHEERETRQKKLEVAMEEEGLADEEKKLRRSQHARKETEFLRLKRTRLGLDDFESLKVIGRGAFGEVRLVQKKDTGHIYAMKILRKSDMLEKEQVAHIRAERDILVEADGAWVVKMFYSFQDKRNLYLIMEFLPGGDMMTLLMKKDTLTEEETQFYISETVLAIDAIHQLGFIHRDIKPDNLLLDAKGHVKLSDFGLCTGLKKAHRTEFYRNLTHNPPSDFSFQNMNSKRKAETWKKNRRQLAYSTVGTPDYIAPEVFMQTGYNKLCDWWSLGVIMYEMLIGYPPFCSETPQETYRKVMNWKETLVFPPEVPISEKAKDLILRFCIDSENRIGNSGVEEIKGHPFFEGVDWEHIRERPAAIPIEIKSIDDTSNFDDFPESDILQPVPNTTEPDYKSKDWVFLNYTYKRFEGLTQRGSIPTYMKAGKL
panel of more than 300 wild-type and mutant kinases (313 kinase panel) (Homo sapiens, UniProt Q9P286), sequence (Q9P286 whole entry, change not shown): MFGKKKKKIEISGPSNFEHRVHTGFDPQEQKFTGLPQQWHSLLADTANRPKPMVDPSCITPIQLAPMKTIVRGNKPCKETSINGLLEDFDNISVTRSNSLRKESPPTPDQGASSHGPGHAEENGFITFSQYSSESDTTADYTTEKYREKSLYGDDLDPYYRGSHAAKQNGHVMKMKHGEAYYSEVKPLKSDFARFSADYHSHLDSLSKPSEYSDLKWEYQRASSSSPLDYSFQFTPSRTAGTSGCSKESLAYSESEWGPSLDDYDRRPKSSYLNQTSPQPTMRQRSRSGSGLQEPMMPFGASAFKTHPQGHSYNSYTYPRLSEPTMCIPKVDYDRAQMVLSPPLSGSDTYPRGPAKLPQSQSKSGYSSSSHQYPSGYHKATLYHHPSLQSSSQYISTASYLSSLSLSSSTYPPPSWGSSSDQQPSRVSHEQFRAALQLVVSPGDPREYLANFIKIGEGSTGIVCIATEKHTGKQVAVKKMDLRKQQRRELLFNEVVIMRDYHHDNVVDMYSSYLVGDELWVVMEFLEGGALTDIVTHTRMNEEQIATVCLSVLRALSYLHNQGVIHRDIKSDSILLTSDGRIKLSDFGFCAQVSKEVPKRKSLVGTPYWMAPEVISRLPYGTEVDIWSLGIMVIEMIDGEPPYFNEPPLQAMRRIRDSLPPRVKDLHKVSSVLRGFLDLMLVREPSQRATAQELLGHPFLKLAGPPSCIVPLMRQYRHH

Row | SMILES | %-inhibition of FLT4 ([1]; kinase FLT4, compound at 1 μM) [%] | %-inhibition of TSSK1 ([2]; kinase TSSK1, 1 μM) [%] | %-inhibition of PAK5 ([3]; kinase PAK5, 1 μM) [%] | %-inhibition of TNIK ([4]; kinase TNIK, 1 μM) [%] | %-inhibition of MRCKα ([5]; kinase MRCKα, 1 μM) [%] | %-inhibition, CDK2/CycE1 [6, 12] [%] | %-inhibition of YES ([7]; kinase YES, compound at 1 μM) [%] | %-inhibition of NDR2 ([8]; kinase NDR2, 1 μM) [%] | %-inhibition, CK1ε ([9]; kinase CK1ε, 1 μM compound) [%] | %-inhibition of RON ([10]; kinase RON, 1 μM) [%] | %-inhibition of MAP4K2 [11, 13] [%] | %-inhibition, CDK2/CycA2 [6, 14] [%] | other results
1 | C[C@@H](Oc1cc(-c2cnn(C3CCNCC3)c2)cnc1N)c1c(Cl)ccc(F)c1Cl [crizotinib] | 48 | 21 | 7 | 11 | -8 | -14 | 65 | -4.76 | 4 | – | – | – | –
2 | CC(C)(C)c1nc(-c2cccc(NS(=O)(=O)c3c(F)cccc3F)c2F)c(-c2ccnc(N)n2)s1 [dabrafenib] | 85 | 8 | 21 | 15 | -1.84 | – | – | -2 | 10 | 37 | 8 | – | –
3 | COc1cc2c(Nc3ccc(Br)cc3F)ncnc2cc1OCC1CCN(C)CC1 [vandetanib] | 104 | 2.66 | -3.26 | 66 | -6 | -21 | 100 | -9 | – | – | – | -8 | –
4 | O=S(=O)(c1cccc2cnccc12)N1CCCNCC1 [fasudil] | 5.61 | 26 | -6.61 | 4 | -2.54 | 13 | 1.18 | 25 | -4.62 | -6 | 4 | 22 | –
5 | C#Cc1cccc(Nc2ncnc3cc(OCCOC)c(OCCOC)cc23)c1 [erlotinib] | – | – | – | – | – | – | – | – | – | – | – | – | %-inhibition of FLT4 ([1]; 1 µM): 75%; %-inhibition of TSSK1 ([2]; 1 µM): 3.5%; %-inhibition of PAK5 ([3]; 1 µM): -0.141%; %-inhibition of TNIK ([4]; 1 µM): 34%; %-inhibition of MRCKα ([5]; 1 µM): -6%; %-inhibition of RON ([10]; 1 µM): 8%; %-inhibition, CDK2/CycA2 ([6]; 1 µM): 10%; %-inhibition, CDK2/CycE1 ([6]; 1 µM): -2.43%; %-inhibition of YES ([7]; 1 µM): 51%; %-inhibition of NDR2 ([8]; 1 µM): -6%; %-inhibition of MAP4K2 ([11]; 1 µM): 9%; %-inhibition, CK1ε ([9]; 1 µM): -2.38%
6 | COc1cc2nccc(Oc3ccc(NC(=O)C4(C(=O)Nc5ccc(F)cc5)CC4)cc3)c2cc1OC [cabozantinib] | 100 | -1.49 | -2.51 | 16 | 0.575 | 5 | 90 | -6 | 3.28 | 99 | 35 | -9 | –
7 | Cc1ccc(C(=O)Nc2ccc(CN3CCN(C)CC3)c(C(F)(F)F)c2)cc1C#Cc1cnc2cccnn12 [ponatinib] | 101 | -4 | -0.481 | 96 | -0.575 | 9 | 101 | – | – | 39 | 99 | -9 | –
8 | CCCS(=O)(=O)Nc1ccc(F)c(C(=O)c2c[nH]c3ncc(-c4ccc(Cl)cc4)cc23)c1F [vemurafenib] | 24 | -4 | -1.23 | 33 | 0.383 | -5 | 74 | -2.51 | 2.46 | -2 | 43 | -3 | –
9 | CCN(CC)CCNC(=O)c1c(C)[nH]c(/C=C2\C(=O)Nc3ccc(F)cc32)c1C [sunitinib] | – | 85 | 35 | 94 | – | – | 99 | – | 45 | 22 | 85 | – | –
10 | Cc1cn(-c2cc(NC(=O)c3ccc(C)c(Nc4nccc(-c5cccnc5)n4)c3)cc(C(F)(F)F)c2)cn1 [nilotinib] | 17 | -2.32 | 3.39 | 11 | -13 | 20 | 44 | -14 | 0.595 | – | 3.24 | -0.282 | %-inhibition of RON ([10]; 1 µM): -13%
11 | CS(=O)(=O)CCNCc1ccc(-c2ccc3ncnc(Nc4ccc(OCc5cccc(F)c5)c(Cl)c4)c3c2)o1 [lapatinib] | -2.21 | -3.21 | – | 25 | – | – | 26 | -6 | – | 1.17 | 11 | – | %-inhibition of PAK5 ([3]; 1 µM): -0.566%; %-inhibition of MRCKα ([5]; 1 µM): -2.49%; %-inhibition, CDK2/CycE1 ([6]; 1 µM): -2.57%; %-inhibition, CK1ε ([9]; 1 µM): 1.64%
12 | Cc1nc(Nc2ncc(C(=O)Nc3c(C)cccc3Cl)s2)cc(N2CCN(CCO)CC2)n1 [dasatinib] | 31 | -4.66 | – | – | – | 12 | – | -6 | – | – | – | 5 | –
13 | Cc1ccc(Nc2nccc(N(C)c3ccc4c(C)n(C)nc4c3)n2)cc1S(N)(=O)=O [pazopanib] | – | -1.56 | 2 | 83 | -2.17 | -0.507 | 68 | 2.36 | 0 | 13 | 71 | -5 | –
14 | COc1cc(Nc2c(C#N)cnc3cc(OCCCN4CCN(C)CC4)c(OC)cc23)c(Cl)cc1Cl [bosutinib] | 92 | 29 | 17 | 102 | – | – | 97 | – | – | – | 98 | – | –
